Experimental data taken from patent US9669038B1, “Heterocyclic compounds and uses thereof” (Globavir BioSciences, Inc., priority 2012, dated 2017).

Key:
VEGFA gene = experiment: qRT-PCR of hypoxia-induced VEGFA transcription in A549 cells; type: cell-based; conditions: hypoxia (GasPak EZ Anaerobe Pouch), real-time qRT-PCR
Procedure: (§1) Hypoxia was mimicked by O2 deprivation in a GasPak™ EZ Anaerobe Pouch System (BD). […] Error bars are ±s.e.m. of four independent experiments. *** P<0.001, t-test.
(§2) A549 cells, a non-small cell lung adenocarcinoma cell line, were used. It has been reported that A549 cell line produces robust upregulation of key HIF-inducible genes under hypoxia conditions. […] A549 cells were maintained in 2% serum followed by treating cells with compound or control in the media with 0.2% serum for 48 h.
(§3) mRNA levels of three HIF-1α inducible genes: VEGF, c-Met and […] in A549 cells after treatment with OOPS were measured. Data from qRT-PCR experiments showing mRNA levels of three HIF-1α inducible genes, VEGF, c-Met and LOX in A549 after treatment of the cells in a medium with OOPS is described in FIGS. 1-3. Hypoxia was mimicked by O2 deprivation in a GasPak™ EZ Anaerobe Pouch System (BD). Error bars are ±s.e.m for the experiments performed in quadruplicate. Error bars are ±s.e.m. of experiments performed in triplicate. *** P<0.001, ** P<0.01, t test.

c-Met gene = experiment: qRT-PCR of hypoxia-induced c-Met transcription in A549 cells; type: cell-based; conditions: hypoxia (GasPak EZ Anaerobe Pouch), real-time qRT-PCR
Procedure: as §1, §2, §3

LOX gene = experiment: qRT-PCR of hypoxia-induced LOX transcription in A549 cells; type: cell-based; conditions: hypoxia (GasPak EZ Anaerobe Pouch), real-time qRT-PCR
Procedure: as §1, §2, §3

[1] = system: HIF1α-inducible promoter activity; experiment: luciferase-based hypoxia-inducible promoter activity assay, MDA-MB-231-HRE-Luc cell line; conditions: MDA-MB-231-HRE-Luc cells, various concentrations
Procedure: Results from the luciferase-based promoter activity assay with MDA-MB-231-HRE-Luc cell line treated with OOP 1 at various concentration. Hypoxia was mimicked by O2 deprivation in a GasPak™ EZ Anaerobe Pouch System (BD). Error bars represent ±s.e.m. of experiments performed in triplicates. * P<0.05, ** P<0.01, t-test, relative to sample Vehicle Hypoxia.
An analysis of hypoxia-inducible promoter activity was performed using luciferase assays in a MDA-MB-231 cell line stably transfected with hRE-hCMV-Luc plasmid. Cell lines were treated with OOP compounds at various concentrations. Hypoxia was mimicked by O2 deprivation in a GasPak™ EZ Anaerobe Pouch System (BD). Error bars represent ±s.e.m. of experiments performed in triplicates.

MCF7 cells = experiment: gene expression profiling with Affymetrix Human Gene ST 1.0 Arrays; type: cell-based; conditions: 10 μM, hypoxia (GasPak EZ pouch), |fold-change|>2.0, P<0.005, set of 3328 transcripts
Procedure: (A) Agglomerative hierarchical clustering of expression changes of the 3328 transcripts induced or repressed 2-fold or more (one-way ANOVA, P<0.005) under hypoxia mimicked with GasPak EZ pouch and the four specified conditions: -, no treatment; 1, OOP 1 (10 iuM); 2, OOP 2 (10 μM), 4, OOP 4 (10 μM). Clustering was based on a Pearson centered correlation of intensity ratios for each treatment compared to hypoxic cells (controls) using average-linkage as a distance. Of this hypoxia-induced set, 148 were induced and 449 were inhibited by OOP 1, whereas 217 were induced and 371 inhibited by OOP 2 (|fold-change|>2.0, P<0.005). Treatment with control OOP 4 induced 91 and inhibited 82 transcripts (|fold-change|>2.0, P<0.005). (B) Clustering of expression changes of the 571 transcripts induced or repressed 4-fold or more (P<0.005) by hypoxia mimicked with GasPak EZ pouch under the designated treatment conditions. Clustering parameters were the same as in (A). All reported treatments are error-weighted averages from three experiments. […] Numbers inside the intersections represent hypoxia-induced transcripts affected by the treatments.
Target proteins p300 and CBP are pleiotropic multidomain coactivators, and their CH1 regions contain binding sites for multiple transcription factors. To determine nonspecific genome-wide effects of OOPS, in vitro gene expression profiling experiments were conducted with OOPS using Affymetrix Human Gene ST 1.0 Arrays containing oligonucleotide sequences representing 28,869 transcripts. In order to interrogate cellular genome for global effects, MCF7 cells were treated with OOPS.

HIF-1α = experiment: Western blot of intracellular HIF-1α levels in A549 cells; type: cell-based; conditions: A549 whole cell extract, 24 h incubation, hypoxia for last 18 h
Procedure: Western blot analysis of HIF-1α levels (A) with β-actin used as a control (B) in the whole cell extract of A549 cells. Cells were incubated for a total of 24 hours with OOP 2. After 6 h, hypoxia was mimicked by O2 deprivation in a GasPak™ EZ Anaerobe Pouch System (BD) for an additional 18 h.
(§4) The effect of OOPS on HIF-1α and c-met protein levels was studied. A549 cells were treated with OOPS. Cells were incubated for a total of 24 hours with OOP 2. After 6 h, hypoxia was mimicked by O2 deprivation in a GasPak™ EZ Anaerobe Pouch System (BD) for an additional 18 hours.

c-Met = experiment: Western blot of intracellular c-Met levels in A549 cells; type: cell-based; conditions: A549 whole cell extract, 24 h incubation, hypoxia for last 18 h
Procedure: Western blot analysis of c-Met levels (A) with β-actin used as a control (B) in the whole cell extract of A549 cells. Cells were incubated for a total of 24 hours with OOP 2. After 6 h, hypoxia was mimicked by O2 deprivation in a GasPak™ EZ Anaerobe Pouch System (BD) for an additional 18 h.
as §4

[2] = MTT cytotoxicity assay in MCF7 cells; type: cell-based; conditions: human, MCF7 breast cancer cells, 1 μM to 60 μM
Procedure: One potential issue that arises with the use of transcriptional inhibitors is their cytotoxicity. Therefore, careful assessment of the cytotoxicity is important to evaluate nonspecific, global effects on transcriptional machinery. Cytotoxicity experiments were performed in order to obtain the EC50 values of OOPS in an MCF7 breast cancer cell line.
The cells were treated with different concentrations of compound for 48 hours in serum free F-12K medium. The cells are plated into 96-well dishes (Greiner) at a density of 5,000-10,000 cells/well in 200 μl of the cell culture media prepared as recommended by the vendor (ATCC). The plates are then placed into the incubator (37° C., 5% CO2) until the desired confluence is reached (in ca. 24-72 hours). Next, the media in all wells is replaced with the solution of the OOPS compound (150 μl for 48 hour study, 200 μl for 72 hour study) in the appropriate cell culture medium. The plates are then incubated for 48 hours (37° C., 5% CO2). […] The resulting purple precipitate is then dissolved in DMSO (200 μl/well) and the absorption of the metabolite product (purple formazan) in each well is measured at 562 nm using microplate reader (BioTek Synergy II). The absorption values are plotted against the concentration of the compound and GI50 is determined.

[3] = maximum tolerated dose (MTD) study; type: in vivo; conditions: Balb/C mice, intraperitoneal injection every 48 hours, up to 100 mg/kg
Procedure: Balb/C mice were used in an MTD experiment. 1 mouse was present in the vehicle group and 3 mice in OOP 2-treated group. Food and water ad libitum was provided as needed and according to the protocol. OOP 2 was administered by Intraperitoneal (IP) injection. OOP 2 was dissolved in sterile PBS at a concentration range between […]. Volume administered was about 100-150 μl every 48 hours. No toxicity was seen even at 100 mg/kg of OOP 2, at which point the experiment was terminated.

| Structure (SMILES) | expression levels of VEGFA gene (mRNA) (VEGFA gene) | expression levels of c-Met gene (mRNA) (c-Met gene) | expression levels of LOX gene (mRNA) (LOX gene) | HIF1α-inducible promoter activity (luciferase) [1] | number of transcripts induced, of the hypoxia-induced set (MCF7 cells) | number of transcripts inhibited, of the hypoxia-induced set (MCF7 cells) | intracellular levels of HIF-1α (Western blot) (HIF-1α) | intracellular levels of c-Met (Western blot) (c-Met) | EC50 at 48 h [2] | toxicity in MTD study [3] |
| --- | --- | --- | --- | --- | --- | --- | --- | --- | --- | --- |
| C[C@@H]1NCCN([C@@H](C)C(=O)N2CCN([C@@H](C)C(N)=O)C(=O)[C@@H]2C)C1=O [OOP 4] | no inhibitory activity | no inhibitory activity | no inhibitory activity | does not affect HIF1α-inducible promoter activity | 91 | 82 |  |  |  |  |
| CC(C)C[C@H](N)C(=O)N1CCN([C@@H](C)C(=O)N2CCN([C@@H](C)C(N)=O)C(=O)[C@@H]2CC(C)C)C(=O)[C@@H]1CCCNC(=N)N [OOP 3] |  |  |  | reduces HIF1α-inducible promoter activity in vitro in a dose-dependent manner |  |  |  |  |  |  |
| CC(C)C[C@@H]1NCCN([C@@H](CC(C)C)C(=O)N2CCN([C@@H](CCC(N)=O)C(N)=O)C(=O)[C@@H]2C)C1=O [OOP 2] | reduced expression levels of VEGFA gene | reduced expression levels of c-Met gene | reduced expression levels of LOX gene | reduces HIF1α-inducible promoter activity in vitro in a dose-dependent manner | 217 | 371 | does not decrease the intracellular levels of HIF-1α | decreases intracellular levels of c-Met | 30 µM | No toxicity |
| CC(C)C[C@@H]1NCCN([C@@H](CC(C)C)C(=O)N2CCN([C@@H](C)C(N)=O)C(=O)[C@@H]2C)C1=O [OOP 1] |  |  |  | reduces HIF1α-inducible promoter activity in vitro in a dose-dependent manner | 148 | 449 |  |  | 30 µM |  |
